{
  "source": "paper PMC10281726",
  "about": "(Journal of Food and Drug Analysis, 2023)",
  "format_in_all_cases": "biochemical",
  "key": {"[1]": {"biological_target": "dual-specific tyrosine phosphorylation-regulated kinase 1A (DYRK1A) (Homo sapiens, UniProt Q13627)", "assay": "Z'-LYTE FRET-peptide kinase assay, dose response"}, "[2]": {"biological_target": "MINK1 (Homo sapiens, UniProt Q8N4C8)", "sequence (Q8N4C8 whole entry)": "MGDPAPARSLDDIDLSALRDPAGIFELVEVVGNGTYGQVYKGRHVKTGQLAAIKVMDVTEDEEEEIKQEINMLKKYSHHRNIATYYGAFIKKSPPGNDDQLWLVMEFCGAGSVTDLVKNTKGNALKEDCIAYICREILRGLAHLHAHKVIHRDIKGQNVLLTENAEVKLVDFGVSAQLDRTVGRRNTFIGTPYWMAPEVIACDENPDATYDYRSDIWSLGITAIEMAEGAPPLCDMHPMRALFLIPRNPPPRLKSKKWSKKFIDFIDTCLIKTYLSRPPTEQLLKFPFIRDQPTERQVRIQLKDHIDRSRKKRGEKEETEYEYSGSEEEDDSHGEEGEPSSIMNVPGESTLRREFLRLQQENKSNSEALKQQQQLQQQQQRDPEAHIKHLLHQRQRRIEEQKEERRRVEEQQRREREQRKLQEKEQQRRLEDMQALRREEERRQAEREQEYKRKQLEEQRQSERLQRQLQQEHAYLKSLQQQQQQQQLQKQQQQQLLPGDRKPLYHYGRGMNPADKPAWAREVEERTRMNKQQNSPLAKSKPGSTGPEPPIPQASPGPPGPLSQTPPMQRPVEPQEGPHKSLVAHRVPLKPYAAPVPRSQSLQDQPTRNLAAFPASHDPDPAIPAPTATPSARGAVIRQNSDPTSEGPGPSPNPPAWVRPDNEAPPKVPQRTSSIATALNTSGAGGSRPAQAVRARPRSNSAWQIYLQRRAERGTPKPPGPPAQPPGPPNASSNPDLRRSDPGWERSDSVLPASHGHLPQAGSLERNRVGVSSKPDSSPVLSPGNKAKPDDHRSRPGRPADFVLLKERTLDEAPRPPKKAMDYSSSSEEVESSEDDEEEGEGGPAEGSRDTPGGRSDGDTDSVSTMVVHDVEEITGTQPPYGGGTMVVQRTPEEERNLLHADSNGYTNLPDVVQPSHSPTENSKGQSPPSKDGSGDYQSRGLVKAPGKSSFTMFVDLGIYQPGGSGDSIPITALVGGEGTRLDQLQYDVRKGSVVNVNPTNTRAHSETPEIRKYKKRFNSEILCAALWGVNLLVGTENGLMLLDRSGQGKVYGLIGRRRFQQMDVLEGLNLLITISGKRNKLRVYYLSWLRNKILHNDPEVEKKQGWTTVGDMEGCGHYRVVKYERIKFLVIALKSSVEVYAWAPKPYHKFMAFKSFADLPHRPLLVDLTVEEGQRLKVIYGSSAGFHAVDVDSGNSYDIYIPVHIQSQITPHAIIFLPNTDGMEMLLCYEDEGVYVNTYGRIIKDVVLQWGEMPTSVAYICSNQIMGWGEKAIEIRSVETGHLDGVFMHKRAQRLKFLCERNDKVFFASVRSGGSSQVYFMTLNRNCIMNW", "assay": "kinase panel", "conditions": "read-out: % inhibition at 3 μM"}, "[3]": {"biological_target": "T1, STK3 (Homo sapiens, UniProt Q13188)", "T1 sequence (Q13188 1-491)": "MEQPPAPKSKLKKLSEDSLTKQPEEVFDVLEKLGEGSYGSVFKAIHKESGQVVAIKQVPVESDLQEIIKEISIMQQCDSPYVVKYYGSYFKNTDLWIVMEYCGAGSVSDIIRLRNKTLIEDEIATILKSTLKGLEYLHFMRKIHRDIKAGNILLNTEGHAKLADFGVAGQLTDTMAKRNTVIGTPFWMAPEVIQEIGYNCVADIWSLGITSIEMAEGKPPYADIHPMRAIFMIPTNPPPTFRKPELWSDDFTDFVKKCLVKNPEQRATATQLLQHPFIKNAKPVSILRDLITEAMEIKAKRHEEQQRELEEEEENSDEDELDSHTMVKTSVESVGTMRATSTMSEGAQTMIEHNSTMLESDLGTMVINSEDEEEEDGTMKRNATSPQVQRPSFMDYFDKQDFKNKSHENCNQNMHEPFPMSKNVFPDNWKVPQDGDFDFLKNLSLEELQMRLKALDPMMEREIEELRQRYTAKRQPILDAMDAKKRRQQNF", "assay": "kinase panel", "conditions": "read-out: % inhibition at 3 μM"}, "[4]": {"biological_target": "MKNK1 (Homo sapiens, UniProt Q9BUB5)", "sequence (Q9BUB5 whole entry)": "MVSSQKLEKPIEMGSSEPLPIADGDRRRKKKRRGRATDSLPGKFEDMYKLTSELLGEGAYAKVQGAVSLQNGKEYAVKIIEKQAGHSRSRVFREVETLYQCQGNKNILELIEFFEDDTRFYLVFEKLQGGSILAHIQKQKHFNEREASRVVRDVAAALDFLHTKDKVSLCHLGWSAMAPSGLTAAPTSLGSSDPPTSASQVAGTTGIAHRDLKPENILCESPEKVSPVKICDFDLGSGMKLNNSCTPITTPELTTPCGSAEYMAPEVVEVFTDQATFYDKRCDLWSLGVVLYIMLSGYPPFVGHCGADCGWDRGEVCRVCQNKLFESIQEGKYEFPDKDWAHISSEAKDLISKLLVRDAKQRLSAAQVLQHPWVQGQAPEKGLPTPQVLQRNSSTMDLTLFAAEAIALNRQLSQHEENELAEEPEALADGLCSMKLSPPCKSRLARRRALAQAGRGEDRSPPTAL", "assay": "kinase panel", "conditions": "read-out: % inhibition at 3 μM"}, "[5]": {"biological_target": "VRK2 (Homo sapiens, UniProt Q86Y07)", "sequence (Q86Y07 whole entry)": "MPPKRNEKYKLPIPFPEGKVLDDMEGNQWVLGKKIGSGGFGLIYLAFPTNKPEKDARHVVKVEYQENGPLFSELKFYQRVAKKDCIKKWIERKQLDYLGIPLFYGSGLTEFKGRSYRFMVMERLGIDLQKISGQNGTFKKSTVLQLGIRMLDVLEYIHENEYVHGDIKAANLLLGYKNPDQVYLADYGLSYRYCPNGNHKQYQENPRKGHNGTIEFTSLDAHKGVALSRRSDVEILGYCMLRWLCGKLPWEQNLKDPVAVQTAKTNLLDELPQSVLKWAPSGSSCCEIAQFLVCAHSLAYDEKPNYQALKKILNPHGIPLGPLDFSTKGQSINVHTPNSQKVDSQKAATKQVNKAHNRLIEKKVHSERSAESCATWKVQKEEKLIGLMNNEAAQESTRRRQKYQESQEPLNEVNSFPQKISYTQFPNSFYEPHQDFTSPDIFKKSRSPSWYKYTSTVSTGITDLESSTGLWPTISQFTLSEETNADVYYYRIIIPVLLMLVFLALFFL", "assay": "kinase panel", "conditions": "read-out: % inhibition at 3 μM"}},
  "data": [
    {"smiles": "O=c1oc2cc(O)ccc2c2ccc(O)cc12", "note": "[UA, Urolithin A]", "values": [
      {"measurement": "IC50", "setting": "[1]", "result": 909, "unit": "nM"},
      {"measurement": "inhibition at 3 µM", "setting": "[2]", "result": "> 50", "unit": "%"},
      {"measurement": "inhibition at 3 µM", "setting": "[3]", "result": "> 50", "unit": "%"},
      {"measurement": "inhibition at 3 µM", "setting": "[4]", "result": "> 50", "unit": "%"},
      {"measurement": "inhibition at 3 µM", "setting": "[5]", "result": "> 50", "unit": "%"}
    ]}
  ]
}
